According to patent US20240208968A1, “ALPHA V BETA 6 AND ALPHA V BETA 1 INTEGRIN INHIBITORS AND USES THEREOF” (DiCE Molecules SV, Inc., priority 2021, published 2024):

What was measured:
αvβ1 = αvβ1 (Homo sapiens, UniProt P05556+P06756); experiment: Solid Phase Integrin αvβ1 Assay; assay type: binding
In short: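 Wells coated with 1 µg/mL recombinant TGFb1-LAP and blocked with 2% BSA/TBST, 1 mM MnCl2; αvβ1 (added at 0.2 µg/mL) and compound incubated 90 min at room temperature. Bound integrin detected by streptavidin-HRP (20 min) and TMB after Mn-containing washes; IC50 by four-parameter logistic fit.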

αvβ6 = αvβ6 (Homo sapiens, UniProt P06756+P18564); experiment: Solid Phase Integrin αvβ6 Assay; assay type: binding
In short: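 Plates coated with 1 μg/mL recombinant TGFb1-LAP; compounds and αvβ6 (0.2 μg/mL diluted stock) incubated 1 h at room temperature in 2% BSA/TBST with 1 mM MnCl2. Bound integrin detected with streptavidin-HRP and TMB; IC50 from four-parameter logistic fits.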

Chain of αvβ1 (P06756 31-992 limits assumed): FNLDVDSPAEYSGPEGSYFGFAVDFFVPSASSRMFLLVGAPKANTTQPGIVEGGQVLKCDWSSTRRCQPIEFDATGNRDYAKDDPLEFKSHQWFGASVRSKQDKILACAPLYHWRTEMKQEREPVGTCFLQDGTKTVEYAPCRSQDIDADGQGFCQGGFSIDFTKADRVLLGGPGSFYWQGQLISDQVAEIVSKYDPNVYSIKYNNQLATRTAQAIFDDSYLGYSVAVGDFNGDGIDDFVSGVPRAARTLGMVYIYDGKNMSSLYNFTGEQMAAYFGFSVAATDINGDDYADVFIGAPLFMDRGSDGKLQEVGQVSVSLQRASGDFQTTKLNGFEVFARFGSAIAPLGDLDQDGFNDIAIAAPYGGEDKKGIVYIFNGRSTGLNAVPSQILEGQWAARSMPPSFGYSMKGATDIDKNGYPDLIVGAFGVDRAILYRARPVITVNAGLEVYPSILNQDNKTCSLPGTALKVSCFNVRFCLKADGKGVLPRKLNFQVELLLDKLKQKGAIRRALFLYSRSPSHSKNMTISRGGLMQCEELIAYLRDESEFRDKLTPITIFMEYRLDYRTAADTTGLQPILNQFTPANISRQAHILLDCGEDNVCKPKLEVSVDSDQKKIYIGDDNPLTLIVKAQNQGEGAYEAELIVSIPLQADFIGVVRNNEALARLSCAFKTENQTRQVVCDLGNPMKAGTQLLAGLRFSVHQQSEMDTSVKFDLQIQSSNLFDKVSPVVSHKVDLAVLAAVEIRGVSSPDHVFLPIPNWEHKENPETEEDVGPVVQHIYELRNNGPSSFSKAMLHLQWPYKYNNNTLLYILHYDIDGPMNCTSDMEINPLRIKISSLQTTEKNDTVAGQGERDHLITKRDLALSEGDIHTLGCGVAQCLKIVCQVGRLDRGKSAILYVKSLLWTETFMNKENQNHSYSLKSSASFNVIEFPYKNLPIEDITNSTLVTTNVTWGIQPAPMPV
Chain of αvβ1 (P05556 21-728 limits assumed): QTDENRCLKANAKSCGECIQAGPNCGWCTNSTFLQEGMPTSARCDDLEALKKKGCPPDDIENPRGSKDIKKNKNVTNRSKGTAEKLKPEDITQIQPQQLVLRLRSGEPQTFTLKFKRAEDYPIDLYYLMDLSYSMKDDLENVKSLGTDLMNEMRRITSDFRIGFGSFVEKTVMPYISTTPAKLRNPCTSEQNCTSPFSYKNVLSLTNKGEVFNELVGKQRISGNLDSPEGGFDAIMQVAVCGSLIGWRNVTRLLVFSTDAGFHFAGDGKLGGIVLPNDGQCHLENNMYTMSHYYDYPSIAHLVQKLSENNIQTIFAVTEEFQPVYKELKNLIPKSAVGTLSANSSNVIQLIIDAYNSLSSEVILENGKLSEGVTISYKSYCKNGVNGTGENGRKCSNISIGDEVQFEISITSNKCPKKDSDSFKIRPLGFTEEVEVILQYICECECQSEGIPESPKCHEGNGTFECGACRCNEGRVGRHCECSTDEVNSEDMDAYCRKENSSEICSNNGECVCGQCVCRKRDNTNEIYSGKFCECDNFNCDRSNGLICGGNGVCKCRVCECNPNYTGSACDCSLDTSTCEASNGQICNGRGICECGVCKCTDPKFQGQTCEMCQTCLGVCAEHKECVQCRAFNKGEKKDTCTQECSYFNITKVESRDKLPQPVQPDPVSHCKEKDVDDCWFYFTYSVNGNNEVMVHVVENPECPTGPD
Chain of αvβ6 (P06756 31-992 limits assumed): as the sequence (P06756 31-992 limits assumed) above
Chain of αvβ6 (P18564 22-707 limits assumed): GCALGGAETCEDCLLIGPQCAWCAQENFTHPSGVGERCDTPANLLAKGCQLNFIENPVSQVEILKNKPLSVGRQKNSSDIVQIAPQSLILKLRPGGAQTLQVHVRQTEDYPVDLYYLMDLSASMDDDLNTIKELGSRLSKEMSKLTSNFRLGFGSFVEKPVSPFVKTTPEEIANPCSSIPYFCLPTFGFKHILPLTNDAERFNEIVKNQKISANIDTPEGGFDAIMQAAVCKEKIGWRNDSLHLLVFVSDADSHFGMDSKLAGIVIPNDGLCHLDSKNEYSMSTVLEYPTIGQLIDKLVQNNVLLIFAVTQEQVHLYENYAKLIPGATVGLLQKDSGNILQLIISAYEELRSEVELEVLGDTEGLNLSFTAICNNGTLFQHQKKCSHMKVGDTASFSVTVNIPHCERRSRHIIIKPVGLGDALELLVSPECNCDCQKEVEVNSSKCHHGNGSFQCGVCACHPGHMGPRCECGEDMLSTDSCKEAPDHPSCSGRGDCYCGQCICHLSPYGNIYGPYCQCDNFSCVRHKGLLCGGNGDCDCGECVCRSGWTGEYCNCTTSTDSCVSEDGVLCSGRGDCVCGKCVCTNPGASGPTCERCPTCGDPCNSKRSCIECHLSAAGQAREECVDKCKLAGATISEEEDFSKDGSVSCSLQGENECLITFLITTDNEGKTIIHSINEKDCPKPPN

Row | IC50 (αvβ1) [nM] | IC50 (αvβ6) [nM] | Compound
1 | 100 to 1000 | 100 to 1000 | O=C(O)C[C@H](CO[C@@H]1CCCN(CCCc2ccc3c(n2)NCCC3)C1)c1ccccc1 [Compound 297-A, 3-phenyl-4-(((R)-1-(3-(5,6,7,8-tetrahydro-1,8-naphthyridin-2-yl)propyl)piperidin-3-yl)oxy)butanoic acid]
2 | < 100 | < 100 | O=C(O)C[C@@H](CO[C@@H]1CCCN(CCCc2ccc3c(n2)NCCC3)C1)c1ccccc1 [Compound 297-B, 3-phenyl-4-(((R)-1-(3-(5,6,7,8-tetrahydro-1,8-naphthyridin-2-yl)propyl)piperidin-3-yl)oxy)butanoic acid]
3 | < 100 | 100 to 1000 | O=C(O)C[C@@H](CC[C@@H]1CCCN(CCCc2ccc3c(n2)NCCC3)C1)c1ccccc1 [Compound 298-A, 3-phenyl-5-((R)-1-(3-(5,6,7,8-tetrahydro-1,8-naphthyridin-2-yl)propyl)piperidin-3-yl)pentanoi c acid]
4 | < 100 | < 100 | O=C(O)C[C@H](CC[C@@H]1CCCN(CCCc2ccc3c(n2)NCCC3)C1)c1ccccc1 [Compound 298-B, 3-phenyl-5-((R)-1-(3-(5,6,7,8-tetrahydro-1,8-naphthyridin-2-yl)propyl)piperidin-3-yl)pentanoi c acid]
5 | > 1000 | > 1000 | O=C(O)C[C@H](C(=O)N[C@@H]1CCCN(CCCc2ccc3c(n2)NCCC3)C1)c1ccccc1 [Compound 299, (S)-4-oxo-3-phenyl-4-(((R)-1-(3-(5,6,7,8-tetrahydro-1,8-naphthyridin-2-yl)propyl)piperidin-3-yl)amino)butanoic acid]
6 | > 1000 | > 1000 | O=C(NC1([C@H](C(=O)O)c2cccc(-c3ccccc3)c2)CC1)[C@@H]1CCCN(CCCc2ccc3c(n2)NCCC3)C1 [Compound 301-A, 2-([1,1′-biphenyl]-3-yl)-2-(1-((R)-1-(3-(5,6,7,8-tetrahydro-1,8-naphthyridin-2-yl)propyl)piperidine-3-carboxamido)cyclopropyl)acetic acid]
7 | > 1000 | > 1000 | O=C(NC1([C@@H](C(=O)O)c2cccc(-c3ccccc3)c2)CC1)[C@@H]1CCCN(CCCc2ccc3c(n2)NCCC3)C1 [Compound 301-B, 2-([1,1′-biphenyl]-3-yl)-2-(1-((R)-1-(3-(5,6,7,8-tetrahydro-1,8-naphthyridin-2-yl)propyl)piperidine-3-carboxamido)cyclopropyl)acetic acid]
8 | < 100 | < 100 | O=C(NC[C@@H](C(=O)O)c1cccc(Br)c1)[C@@H]1CCCN(CCCc2ccc3c(n2)NCCC3)C1 [Compound 302]
9 | < 100 | < 100 | O=C(NC[C@H](C(=O)O)c1cccc(Br)c1)[C@@H]1CCCN(CCCc2ccc3c(n2)NCCC3)C1 [Compound 303]
10 | < 100 | < 100 | O=C(NC[C@H](NC(=O)[C@@H]1CC2CCC1CC2)C(=O)O)[C@@H]1CCCN(CCCc2ccc3c(n2)NCCC3)C1 [Compound 304]
11 | < 100 | < 100 | O=C(NC[C@H](NC(=O)[C@H]1CC2CCC1CC2)C(=O)O)[C@@H]1CCCN(CCCc2ccc3c(n2)NCCC3)C1 [Compound 305]
12 | 100 to 1000 | 100 to 1000 | O=C(NC[C@H](C(=O)O)c1cc(F)cc(-c2ccccc2)c1)[C@@H]1CCCN(CCCc2ccc3c(n2)NCCC3)C1 [Compound 306]
13 | < 100 | < 100 | O=C(NC[C@@H](C(=O)O)c1cc(F)cc(-c2ccccc2)c1)[C@@H]1CCCN(CCCc2ccc3c(n2)NCCC3)C1 [Compound 307]
14 | 100 to 1000 | 100 to 1000 | O=C(NC[C@@H](C(=O)O)c1ccc(F)c(-c2ccccc2)c1)[C@@H]1CCCN(CCCc2ccc3c(n2)NCCC3)C1 [Compound 308]
15 | < 100 | < 100 | O=C(NC[C@H](C(=O)O)c1ccc(F)c(-c2ccccc2)c1)[C@@H]1CCCN(CCCc2ccc3c(n2)NCCC3)C1 [Compound 309]
16 | < 100 | < 100 | O=C(N[C@@H](CNC(=O)[C@@H]1CCCN(CCCc2ccc3c(n2)NCCC3)C1)C(=O)O)C1CCOCC1 [Compound 311]
17 | < 100 | < 100 | O=C(N[C@@H](CNC(=O)[C@@H]1CCCN(CCCc2ccc3c(n2)NCCC3)C1)C(=O)O)c1ccncc1 [Compound 312]
18 | < 100 | < 100 | O=C(N[C@@H](CNC(=O)[C@@H]1CCCN(CCCc2ccc3c(n2)NCCC3)C1)C(=O)O)c1nnc(C2CC2)o1 [Compound 313]
19 | 100 to 1000 | 100 to 1000 | O=C(NC[C@@H](C(=O)O)c1cccc2c1cnn2CC1CC1)[C@@H]1CCCN(CCCc2ccc3c(n2)NCCC3)C1 [Compound 314]
20 | < 100 | < 100 | O=C(NC[C@H](C(=O)O)c1cccc2c1cnn2CC1CC1)[C@@H]1CCCN(CCCc2ccc3c(n2)NCCC3)C1 [Compound 315]
21 | 100 to 1000 | > 1000 | O=C(NC[C@@H](C(=O)O)c1cccc2nn(CC3CC3)cc12)[C@@H]1CCCN(CCCc2ccc3c(n2)NCCC3)C1 [Compound 316]
22 | < 100 | < 100 | O=C(NC[C@H](C(=O)O)c1cccc2nn(CC3CC3)cc12)[C@@H]1CCCN(CCCc2ccc3c(n2)NCCC3)C1 [Compound 317]
23 | 100 to 1000 | > 1000 | O=C(NC[C@H](C(=O)O)c1cccc2n[nH]cc12)[C@@H]1CCCN(CCCc2ccc3c(n2)NCCC3)C1 [Compound 318]
24 | < 100 | < 100 | O=C(NC[C@@H](C(=O)O)c1cccc2n[nH]cc12)[C@@H]1CCCN(CCCc2ccc3c(n2)NCCC3)C1 [Compound 319]

Row | IC50 (αvβ1) [nM] | IC50 (αvβ6) [nM] | Compound
25 | > 1000 | > 1000 | O=C(NC[C@@H](C(=O)O)c1cccc2cnn([C@H]3CCOC3)c12)[C@@H]1CCCN(CCCc2ccc3c(n2)NCCC3)C1 [Compound 320]
26 | < 100 | 100 to 1000 | O=C(NC[C@H](C(=O)O)c1cccc2cnn([C@H]3CCOC3)c12)[C@@H]1CCCN(CCCc2ccc3c(n2)NCCC3)C1 [Compound 321]
27 | 100 to 1000 | > 1000 | O=C(NC[C@@H](C(=O)O)c1cccc2cnn([C@@H]3CCOC3)c12)[C@@H]1CCCN(CCCc2ccc3c(n2)NCCC3)C1 [Compound 322]
28 | < 100 | < 100 | O=C(NC[C@H](C(=O)O)c1cccc2cnn([C@@H]3CCOC3)c12)[C@@H]1CCCN(CCCc2ccc3c(n2)NCCC3)C1 [Compound 323]
29 | < 100 | > 1000 | O=C(NC[C@@H](C(=O)O)c1cnc2[nH]ccc2c1)[C@@H]1CCCN(CCCc2ccc3c(n2)NCCC3)C1 [Compound 324]
30 | < 100 | < 100 | O=C(NC[C@H](C(=O)O)c1cnc2[nH]ccc2c1)[C@@H]1CCCN(CCCc2ccc3c(n2)NCCC3)C1 [Compound 325]
31 | < 100 | < 100 | O=C(NC[C@@H](C(=O)O)c1cnc2c(ccn2CC2CC2)c1)[C@@H]1CCCN(CCCc2ccc3c(n2)NCCC3)C1 [Compound 326]
32 | < 100 | < 100 | O=C(NC[C@H](C(=O)O)c1cnc2c(ccn2CC2CC2)c1)[C@@H]1CCCN(CCCc2ccc3c(n2)NCCC3)C1 [Compound 327]
33 | 100 to 1000 | 100 to 1000 | O=C(O)C[C@@H](NC(=O)[C@@H]1CCCN(CCCc2ccc3c(n2)NCCC3)C1)c1ccc2c(c1)C1(CC2)CC1 [Compound 328]
34 | > 1000 | > 1000 | O=C(O)[C@H](CCO[C@@H]1CCCN(CCCc2ccc3c(n2)NCCC3)C1)c1cccc(-c2ccccc2)c1 [Compound 329]
35 | > 1000 | < 100 | O=C(O)[C@@H](CCO[C@@H]1CCCN(CCCc2ccc3c(n2)NCCC3)C1)c1cccc(-c2ccccc2)c1 [Compound 330]
36 | < 100 | < 100 | O=C(O)[C@@H](CCO[C@@H]1CCCN(CCCc2ccc3c(n2)NCCC3)C1)NC(=O)C12CCC(CC1)CC2 [Compound 331]
37 | > 1000 | 100 to 1000 | O=C(O)[C@@H](CCO[C@@H]1CCCN(CCCc2ccc3c(n2)NCCC3)C1)Nc1ncnc2ccccc12 [Compound 332]
38 | 100 to 1000 | 100 to 1000 | O=C(O)[C@H](CCO[C@@H]1CCCN(CCCc2ccc3c(n2)NCCC3)C1)NC(=O)C12CCC(CC1)CC2 [Compound 333]
39 | < 100 | < 100 | O=C(O)[C@H](CCO[C@@H]1CCCN(CCCc2ccc3c(n2)NCCC3)C1)Nc1ncnc2ccccc12 [Compound 334]
40 | 100 to 1000 | 100 to 1000 | O=C(O)CC(CO[C@@H]1CCCN(CCc2ccc3c(n2)NCCC3)C1)c1ccccc1 (stereo partly drawn) [Compound 335]
41 | > 1000 | 100 to 1000 | O=C(O)CC(CO[C@@H]1CCCN(Cc2ccc3c(n2)NCCC3)C1)c1ccccc1 (stereo partly drawn) [Compound 336]
42 | 100 to 1000 | 100 to 1000 | O=C(O)CC(CO[C@H]1CCCN(CCCc2ccc3c(n2)NCCC3)C1)c1ccccc1 (stereo partly drawn) [Compound 337]
43 | < 100 | < 100 | O=C(N[C@@H](CNC(=O)[C@@H]1CCCN(CCCc2ccc3c(n2)NCCC3)C1)C(=O)O)C1CC2CCC1CC2 (stereo partly drawn) [Compound 338]
44 | < 100 | < 100 | O=C(O)CC(NC(=O)[C@@H]1CCCN(CCCc2ccc3c(n2)NCCC3)C1)c1cccc2ccccc12 (stereo partly drawn) [Compound 339]
45 | 100 to 1000 | 100 to 1000 | O=C(NC[C@@H](C(=O)O)c1ccccc1-c1ccccc1)[C@@H]1CCCN(CCCc2ccc3c(n2)NCCC3)C1 [Compound 340]
46 | > 1000 | > 1000 | O=C(NC[C@H](C(=O)O)c1ccccc1-c1ccccc1)[C@@H]1CCCN(CCCc2ccc3c(n2)NCCC3)C1 [Compound 341]
47 | < 100 | < 100 | O=C(NC[C@H](C(=O)O)c1ccc(-c2ccccc2)cc1)[C@@H]1CCCN(CCCc2ccc3c(n2)NCCC3)C1 [Compound 342]
48 | < 100 | < 100 | O=C(O)C[C@@H](NC(=O)[C@@H]1CCCN(CCCc2ccc3c(n2)NCCC3)C1)c1cccc(C2CC2)c1F [Compound 344]
